Results reported in patent US10364256B2 (GlaxoSmithKline Intellectual Property Development Limited, priority 2015, dated 2019).
Like-named read-outs stand apart in the source and are kept apart here.

Tests used:
[1] = tested on: NQO1 specific enzyme activity in BEAS-2B cells (marker for NRF2 activation); experiment: BEAS-2B NQO1 MTT Assay; type: cell-based; conditions: Homo sapiens, compound incubated 48 hours, read-out: EC50 (NQO1 specific enzyme activity induction)
How it was run: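 BEAS-2B cells treated with compound for 48 h at 37 °C, then lysed; NQO1 activity in lysates measured kinetically by MTT reduction at A570 over 30 min. pEC50 from 3-parameter fit of ΔOD/min versus log concentration; lysate also taken for Cell Titer Glo.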

[2] = molecular target: T1, full length Keap1 protein / full length NRF2 protein (Homo sapiens, UniProt Q14145); experiment: NRF2-Keap1 TR-FRET Low Protein Assay; type: binding; conditions: 1.25 nM Keap1 FlagHis and 2.5 nM biotin-NRF2 added
T1 construct: full length NRF2 protein and full length Keap1 protein (Keap1 exists a dimer) are used; His
T1 sequence (Q14145 whole entry): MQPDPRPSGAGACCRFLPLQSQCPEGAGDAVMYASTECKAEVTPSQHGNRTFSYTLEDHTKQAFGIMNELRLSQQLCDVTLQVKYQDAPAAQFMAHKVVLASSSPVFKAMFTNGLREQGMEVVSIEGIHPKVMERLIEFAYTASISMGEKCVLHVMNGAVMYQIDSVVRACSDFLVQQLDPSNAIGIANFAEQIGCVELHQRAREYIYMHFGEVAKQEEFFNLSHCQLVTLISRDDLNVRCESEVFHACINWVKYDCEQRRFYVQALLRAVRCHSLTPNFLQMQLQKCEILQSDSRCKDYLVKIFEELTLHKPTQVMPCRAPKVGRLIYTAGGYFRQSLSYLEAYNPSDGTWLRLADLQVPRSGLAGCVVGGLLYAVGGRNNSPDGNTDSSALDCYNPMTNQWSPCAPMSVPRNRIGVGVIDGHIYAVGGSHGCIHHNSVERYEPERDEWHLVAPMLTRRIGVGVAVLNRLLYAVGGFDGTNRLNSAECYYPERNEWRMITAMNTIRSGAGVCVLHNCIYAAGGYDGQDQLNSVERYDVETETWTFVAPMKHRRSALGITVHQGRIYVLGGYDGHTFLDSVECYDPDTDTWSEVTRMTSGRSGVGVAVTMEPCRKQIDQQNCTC
How it was run: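 Flag-tagged full-length Keap1 was preincubated with compound (3-fold series) for 2.25 h at 37 °C in Tris pH 8.0/MgCl2/NaCl/BSA/DTT/CHAPS. Biotin-Avi-NRF2 (added at 2.5 nM) was then bound for 1.25 h at 4 °C. Eu-streptavidin/anti-Flag-APC TR-FRET (665/615 nm) was read after 1 h at RT, and pIC50 came from a four-parameter fit.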

IC50 [2] [nM]	Structure (SMILES)	EC50 [1] [nM]	EC50 ([1]; BEAS-2B, 48 h) [nM]
10 to 100	Cn1cc([C@@H]2C[C@H]2c2c(C(=O)O)cnn2-c2cccc(-c3cccc(OCCC4CCCCC4)c3)c2)nn1 (racemic) [Example 245, 1-(3′-(2-cyclohexylethoxy)-[1,1′-biphenyl]-3-yl)-5-(trans-2-(1-methyl-1H-1,2,3-triazol-4-yl)cyclopropyl)-1H-pyrazole-4-carboxylic Acid]	10 to 100	–
100 to 1000	Cn1cc([C@@H]2C[C@H]2c2c(C(=O)O)cnn2-c2cccc(-c3cncc(OCC4CCCCC4)c3)c2)nn1 (racemic) [Example 246, 1-(3-(5-(Cyclohexylmethoxy)pyridin-3-yl)phenyl)-5-(trans-2-(1-methyl-1H-1,2,3-triazol-4-yl)cyclopropyl)-1H-pyrazole-4-carboxylic Acid]	1000 to 10000	–
100 to 1000	CC(Oc1cccc(-c2cccc(-n3ncc(C(=O)O)c3[C@H]3C[C@@H]3c3cn(C)nn3)c2)c1)C1CCCCC1 (single isomer, unassigned) [Example 191]	–	100 to 1000
< 10	Cn1cc([C@H]2C[C@@H]2c2c(C(=O)O)cnn2-c2cccc(-c3cccc(-n4ncc5c4C(C)(C)CC5)c3)c2)nn1 (stereo in doubt) [Example 208, 1-(3′-(6,6-Dimethyl-5,6-dihydrocyclopenta[c]pyrazol-1(4H)-yl)-[1,1′-biphenyl]-3-yl)-5-((1S,2S)-2-(1-methyl-1H-1,2,3-triazol-4-yl)cyclopropyl)-1H-pyrazole-4-carboxylic Acid]	10 to 100	–
1000 to 10000	CC(CC1CCCCC1)Oc1cccc(-c2cccc(-n3ncc(C(=O)O)c3C3CC3)c2)c1 (centres unmarked) [Example 161, 1-(3′-((1-Cyclohexylpropan-2-yl)oxy)-[1,1′-biphenyl]-3-yl)-5-cyclopropyl-1H-pyrazole-4-carboxylic Acid]	100 to 1000	–
100 to 1000	CC(Oc1cccc(-c2cccc(-n3ncc(C(=O)O)c3[C@@H]3C[C@H]3c3cn(C)nn3)c2)c1)C1CCCCC1 (stereo partly drawn) [Example 163, 1-(3′-(1-Cyclohexylethoxy)-[1,1′-biphenyl]-3-yl)-5-((1R,2R)-2-(1-methyl-1H-1,2,3-triazol-4-yl)cyclopropyl)-1H-pyrazole-4-carboxylic acid]	–	10 to 100
10 to 100	Cn1cc(C2CC2c2c(C(=O)O)cnn2-c2cccc(-c3cccc(OCC4CCCCC4)c3)c2)nn1 (centres unmarked) [Example 164, 1-(3′-(Cyclohexylmethoxy)-[1,1′-biphenyl]-3-yl)-5-(2-(1-methyl-1H-1,2,3-triazol-4-yl)cyclopropyl)-1H-pyrazole-4-carboxylic acid]	10 to 100	–
< 10	CC(Oc1cccc(-c2cccc(-n3ncc(C(=O)O)c3[C@H]3C[C@@H]3c3cn(C)nn3)c2)c1)C1CCCCC1 (stereo partly drawn) [Example 165, 1-(3′-(1-Cyclohexylethoxy)-[1,1′-biphenyl]-3-yl)-5-((1S,2S)-2-(1-methyl-1H-1,2,3-triazol-4-yl)cyclopropyl)-1H-pyrazole-4-carboxylic acid]	–	1 to 10
10 to 100	Cn1cc([C@@H]2C[C@H]2c2c(C(=O)O)cnn2-c2cccc(-c3cccc(OCC4CCCCC4)c3)c2)nn1 [Example 171, 1-(3′-(Cyclohexylmethoxy)-[1,1′-biphenyl]-3-yl)-5-((1R,2R)-2-(1-methyl-1H-1,2,3-triazol-4-yl)cyclopropyl)-1H-pyrazole-4-carboxylic acid]	10 to 100	–

The next lines start with the compound.

Structure (SMILES)	IC50 [2] [nM]	EC50 [1] [nM]	EC50 ([1]; BEAS-2B, 48 h) [nM]
CCC[C@@H]1CCCCN1C(=O)c1cccc(-c2cc(C)cc(-n3ncc(C(=O)O)c3[C@@H]3C[C@H]3c3cn(C)nn3)c2)c1 (single isomer, unassigned) [Example 155]	< 10	–	100 to 1000
O=C(O)c1cnn(-c2cccc(-c3cccc(C(=O)N(CC4CCCC4)CC4CC4)c3F)c2)c1C1CC1 [Example 14, 1-(3-{3-[(Cyclopentylmethyl)(cyclopropylmethyl)carbamoyl]-2-fluorophenyl}phenyl)-5-cyclopropyl-1H-pyrazole-4-carboxylic Acid]	10 to 100	100 to 1000	–
CCCC1CCCCN1C(=O)c1cccc(-c2cccc(-n3ncc(C(=O)O)c3C3CC3)c2)c1F (centres unmarked) [Example 17, 5-Cyclopropyl-1-{3-[2-fluoro-3-(2-propylpiperidine-1-carbonyl)phenyl]phenyl}-1H-pyrazole-4-carboxylic Acid]	10 to 100	100 to 1000	–
C[C@@H]1CCC[C@H](C)N1C(=O)c1cccc(-c2cccc(-n3ncc(C(=O)O)c3C3CC3)c2)c1F [Example 21, 5-Cyclopropyl-1-(3-{3-[(2R,6S)-2,6-dimethylpiperidine-1-carbonyl]-2-fluorophenyl}phenyl)-1H-pyrazole-4-carboxylic Acid]	100 to 1000	100 to 1000	–
CCCC1CCCCN1C(=O)c1cccc(-c2cccc(-n3ncc(C(=O)O)c3C3CC3c3cccnn3)c2)c1 (centres unmarked) [Example 41, 1-[3′-(2-Propyl-piperidine-1-carbonyl)-biphenyl-3-yl]-5-(2-pyridazin-3-yl-cyclopropyl)-1H-pyrazole-4-carboxylic Acid]	< 10	–	1000 to 10000
CCCC1CCCCN1C(=O)c1cccc(-c2cccc(-n3ncc(C(=O)O)c3C3CC3c3cn(C)nn3)c2)c1 (centres unmarked) [Example 42, 5-[2-(1-methyl-1H-1,2,3-triazol-4-yl)cyclopropyl]-1-{3-[3-(2-propylpiperidine-1-carbonyl)phenyl]phenyl}-1H-pyrazole-4-carboxylic Acid]	< 10	–	100 to 1000
CCC[C@@H]1CCCCN1C(=O)c1cccc(-c2cccc(-n3ncc(C(=O)O)c3[C@H]3C[C@@H]3c3cn(C)nn3)c2)c1 [Example 51g, 5-[(1S,2S)-2-(1-methyl-1H-1,2,3-triazol-4-yl)cyclopropyl]-1-(3-{3-[(2R)-2-propylpiperidine-1-carbonyl]phenyl}phenyl)-1H-pyrazole-4-carboxylic Acid]	100 to 1000	–	1000 to 10000
CCC[C@@H]1CCCCN1C(=O)c1cccc(-c2cccc(-n3ncc(C(=O)O)c3[C@@H]3C[C@H]3c3cn(C)nn3)c2)c1 [Example 51h, 5-[(1R,2R)-2-(1-methyl-1H-1,2,3-triazol-4-yl)cyclopropyl]-1-(3-{3-[(2R)-2-propylpiperidine-1-carbonyl]phenyl}phenyl)-1H-pyrazole-4-carboxylic Acid]	< 10	–	10 to 100
CCC[C@@H]1CCCCN1C(=O)c1cccc(-c2cccc(-n3ncc(C(=O)O)c3C3CC3c3cn(C)nn3)c2)c1F (stereo partly drawn) [Example 57, 1-(2′-Fluoro-3′-((R)-2-propylpiperidine-1-carbonyl)-[1,1′-biphenyl]-3-yl)-5-(2-(1-methyl-1H-1,2,3-triazol-4-yl)cyclopropyl)-1H-pyrazole-4-carboxylic Acid]	< 10	–	10 to 100
O=C(O)c1cnn(-c2cccc(-c3cccc(-n4ncc5c4CCC5)c3)c2)c1C1CC1 [Example 61, 5-Cyclopropyl-1-(3′-(5,6-dihydrocyclopenta[c]pyrazol-1(4H)-yl)-[1,1′-biphenyl]-3-yl)-1H-pyrazole-4-carboxylic Acid]	1000 to 10000	–	100 to 1000
O=C(O)c1cnn(-c2cccc(-c3cccc(-n4ncc5c4CCCC5)c3)c2)c1C1CC1 [Example 62, 5-cyclopropyl-1-(3′-(4,5,6,7-tetrahydro-1H-indazol-1-yl)-[1,1′-biphenyl]-3-yl)-1H-pyrazole-4-carboxylic Acid]	100 to 1000	–	100 to 1000
CCC[C@@H]1CCCCN1C(=O)c1cccc(-c2cccc(-n3ncc(C(=O)O)c3C3CC3(F)F)c2)c1 (stereo partly drawn) [Example 67, 5-(2,2-Difluorocyclopropyl)-1-(3′-((R)-2-propylpiperidine-1-carbonyl)-[1,1′-biphenyl]-3-yl)-1H-pyrazole-4-carboxylic Acid]	10 to 100	–	100 to 1000
CC[C@@H]1CN(Cc2cccc(-c3cccc(-n4ncc(C(=O)O)c4C4CC4c4cn(C)nn4)c3)c2)Cc2ccccc2O1 (stereo partly drawn) [Example 129, 1-(3′-(((R)-2-ethyl-2,3-dihydrobenzo[f][1,4]oxazepin-4(5H)-yl)methyl)-[1,1′-biphenyl]-3-yl)-5-(2-(1-methyl-1H-1,2,3-triazol-4-yl)cyclopropyl)-1H-pyrazole-4-carboxylic Acid]	< 10	100 to 1000	–
CCC[C@@H]1CCCCN1C(=O)c1cccc(-c2cc(C)cc(-n3ncc(C(=O)O)c3C3CC3c3cn(C)nn3)c2)c1 (stereo partly drawn) [Example 154, 5-(2-(1-Methyl-1H-1,2,3-triazol-4-yl)cyclopropyl)-1-(5-methyl-3′-((R)-2-propylpiperidine-1-carbonyl)-[1,1′-biphenyl]-3-yl)-1H-pyrazole-4-carboxylic Acid]	< 10	–	100 to 1000
CCC[C@@H]1CCCCN1C(=O)c1cccc(-c2cc(Cl)cc(-n3ncc(C(=O)O)c3C3CC3c3cn(C)nn3)c2)c1 (stereo partly drawn) [Example 160, 1-(5-Chloro-3′-((R)-2-propylpiperidine-1-carbonyl)-[1,1′-biphenyl]-3-yl)-5-(2-(1-methyl-1H-1,2,3-triazol-4-yl)cyclopropyl)-1H-pyrazole-4-carboxylic Acid Compound with 2,2,2-trifluoroacetic Acid (1:1)]	< 10	–	100 to 1000
Cn1cc(C2CC2c2c(C(=O)O)cnn2-c2cccc(-c3cccc(OCC4CCN(C(=O)OC(C)(C)C)CC4)c3)c2)nn1 (centres unmarked) [Example 167, 1-(3′-((1-(tert-Butoxycarbonyl)piperidin-4-yl)methoxy)-[1,1′-biphenyl]-3-yl)-5-(2-(1-methyl-1H-1,2,3-triazol-4-yl)cyclopropyl)-1H-pyrazole-4-carboxylic acid]	10 to 100	100 to 1000	–
